Target: hTAAR1 (Homo sapiens (Human), UniProt Q96RJ0)
Assay: in vitro cAMP assay (agonist activity assay), HitHunter cAMP XS+, cAMP Hunter cell lines
Type: cell-based
Conditions: cAMP Hunter cells, n in brackets; for EC50: 30 min at 37° C., read-out: hTAAR1 EC50 (mean ± SEM(n)); for Emax: maximal cAMP level, read-out: hTAAR1 Emax (mean ± SEM(n))
Experimental: EC50 (the effective concentration of an agonist that produces half of the maximal effect) and Emax (the maximal cAMP level generated by the biding of a ligand) can be used as a measure of potency. […] An in vitro cAMP assay (agonist activity assay) is described below.
cAMP Hunter cell lines were expanded from freezer stocks according to standard procedures. Cells were seeded in a total volume of 20 μL into white walled, 384-well microplates and incubated at 37° C. overnight prior to testing. cAMP modulation was determined using the HitHunter™ cAMP XS+ assay (DiscoverX, Fremont, Calif.).
On the day of test, media was aspirated from cells and replaced with 15 μL HBSS/10 mM HEPES. A plate centrifuge was used for the media exchange, and the plate centrifuge was immediately stopped once its speed hit 270 RPM.
5 μL of 4× compound (prepared in HBSS/10 mM HEPES/4% DMSO) was added to cells and incubated at 37° C. for 30 minutes. Final assay vehicle concentration was 1%.
5 μL of cAMP XS+ Antibody reagent was then added, followed by 20 μL of ED/CL lysis mix. The mixture was incubated at room temperature for 60 minutes. 20 μL of EA reagent was added, and the mixture was incubated at room temperature for 120 minutes.
Microplates were read following signal generation with a PerkinElmer Envision™ instrument (Waltham, Mass.) for chemiluminescent signal detection. Compound activity was analyzed using CBIS Data Analysis Suite (ChemInnovation, CA).

hTAAR1, sequence (Q96RJ0 whole entry): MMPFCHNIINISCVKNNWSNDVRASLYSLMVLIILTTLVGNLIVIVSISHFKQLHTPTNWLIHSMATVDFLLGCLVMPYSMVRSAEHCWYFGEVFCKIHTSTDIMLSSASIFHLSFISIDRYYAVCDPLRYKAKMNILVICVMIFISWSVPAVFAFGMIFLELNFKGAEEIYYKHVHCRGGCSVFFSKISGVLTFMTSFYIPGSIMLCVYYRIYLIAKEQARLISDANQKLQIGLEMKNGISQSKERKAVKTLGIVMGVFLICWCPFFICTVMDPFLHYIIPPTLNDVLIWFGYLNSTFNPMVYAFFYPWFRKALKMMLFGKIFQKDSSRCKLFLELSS

Row | SMILES | EC50 | Emax
1 | c1ccc([C@H]2COC(NC3=N[C@@H](c4ccccc4)CO3)=N2)cc1 [Compound (26), (4S)-4-phenyl-N-[(4S)-4-phenyl-4,5-dihydro-1,3-oxazol-2-yl]-4,5-dihydro-1,3-oxazol-2-amine] | > 10 µM | 3.6 ± 0.9%
2 | Cc1c(F)cccc1[C@H]1COC(NC2=N[C@@H](c3cccc(F)c3C)CO2)=N1 [Compound (27), (4S)-4-(3-fluoro-2-methylphenyl)-N-[(4S)-4-(3-fluoro-2-methylphenyl)-4,5-dihydro-1,3-oxazol-2-yl]-4,5-dihydro-1,3-oxazol-2-amine] | 0.398 ± 0.0656 µM | 67.5 ± 3.4%
3 | CCN(C[C@H]1COC(NC2=N[C@@H](CN(CC)c3ccccc3)CO2)=N1)c1ccccc1 [Compound (25), (4S)-4-{[ethyl(phenyl)amino]methyl}-N-[(4S)-4-{[ethyl(phenyl)amino]methyl}-4,5-dihydro-1,3-oxazol-2-yl]-4,5-dihydro-1,3-oxazol-2-amine] | 4.07 ± 1.07 µM | 60.7 ± 9.4%

The next lines start with results.

Row | EC50 | SMILES | Emax
4 | > 10 µM | Clc1ccc([C@H]2COC(NC3=N[C@@H](c4ccc(Cl)c(Cl)c4)CO3)=N2)cc1Cl [Compound (8), (4S)-4-(3,4-dichlorophenyl)-N-[(4S)-4-(3,4-dichlorophenyl)-4,5-dihydro-1,3-oxazol-2-yl]-4,5-dihydro-1,3-oxazol-2-amine] | 
5 | > 10 µM | CCN(C[C@H]1COC(NC2=N[C@@H](c3ccc(Cl)c(Cl)c3)CO2)=N1)c1ccccc1 [Compound (24), (4S)-4-(3,4-dichlorophenyl)-N-[(4S)-4-{[ethyl(phenyl)amino]methyl}-4,5-dihydro-1,3-oxazol-2-yl]-4,5-dihydro-1,3-oxazol-2-amine] | 34.3 ± 8.7%

From patent US10858326B2, “Oxazoline pseudodimers, pharmaceutical compositions and the use thereof” (PURDUE PHARMA L.P., priority 2016, dated 2020)
